From the supplement of paper PMC10307832

Assays:
Assay in all cases: relative viability (nuclei count vs DMSO), 5 days (fraction); higher = more cells survive
HCC-78 = tested on: HCC-78
Method in brief: (§1)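 A single step with final 0.05% Triton X-100, 1% formaldehyde and 1 ug/ml Hoechst fixed the cells and stained nuclei 5 days after treatment. Lung cancer cell lines in 1536-well plates had been treated by pin tool the day after seeding with one drug alone or a fixed anchor-drug dose plus five library-drug doses (not always all listed) in √10 steps, and nuclei were counted on 4× images. Relative viability is the ratio of nuclei in treated wells to nuclei in vehicle wells, taken as the median of duplicate plates.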

NCI-H1650 = tested on: NCI-H1650
Method in brief: as §1

NCI-H3122 = tested on: NCI-H3122
Method in brief: as §1

RERF-LC-KJ = tested on: RERF-LC-KJ
Method in brief: as §1

EKVX = tested on: EKVX
Method in brief: as §1

NCI-H1734 = tested on: NCI-H1734
Method in brief: as §1

HCC-15 = tested on: HCC-15
Method in brief: as §1

HARA = tested on: HARA
Method in brief: as §1

SK-LU-1 = tested on: SK-LU-1
Method in brief: as §1

201T = tested on: 201T
Method in brief: as §1

NCI-H1944 = tested on: NCI-H1944
Method in brief: as §1

BEN = tested on: BEN
Method in brief: as §1

HCC-366 = tested on: HCC-366
Method in brief: as §1

LC-2-ad = tested on: LC-2-ad
Method in brief: as §1

HCC-827 = tested on: HCC-827
Method in brief: as §1

NCI-H1993 = tested on: NCI-H1993
Method in brief: as §1

NCI-H1975 = tested on: NCI-H1975
Method in brief: as §1

LU99A = tested on: LU99A
Method in brief: as §1

NCI-H596 = tested on: NCI-H596
Method in brief: as §1

COR-L23 = tested on: COR-L23
Method in brief: as §1

NCI-H1755 = tested on: NCI-H1755
Method in brief: as §1

COR-L 105 = tested on: COR-L 105
Method in brief: as §1

LXF-289 = tested on: LXF-289
Method in brief: as §1

`O=c1[nH]c2ccccc2n1C1CCN(CCCC(c2ccc(F)cc2)c2ccc(F)cc2)CC1` [Pimozide] + O=C(c1cc(Cc2n[nH]c(=O)c3ccccc23)ccc1F)N1CCN(C(=O)C2CC2)CC1 [Olaparib] (partner 8 µM) was tested, and the relative viability (HCC-78; first compound 0.08 µM) was 0.832, the relative viability (HCC-78; first compound 0.8 µM) was 0.787 and the relative viability (HCC-78; first compound 2.53 µM) was 0.709. It also gave a relative viability (HCC-78; first compound 8 µM) of 0.749, a relative viability (NCI-H1650; first compound 0.08 µM) of 0.775 and a relative viability (NCI-H1650; first compound 0.253 µM) of 0.664. For the same compound, the relative viability (NCI-H1650; first compound 0.8 µM) was 0.762, the relative viability (NCI-H1650; first compound 2.53 µM) was 0.962 and the relative viability (NCI-H1650; first compound 8 µM) was 0.805. For the same compound, the relative viability (NCI-H3122; first compound 0.08 µM) was 0.529, the relative viability (NCI-H3122; first compound 0.253 µM) was 0.684 and the relative viability (NCI-H3122; first compound 0.8 µM) was 0.66. The relative viability (NCI-H3122; first compound 2.53 µM) was 0.637, the relative viability (NCI-H3122; first compound 8 µM) was 0.576 and the relative viability (RERF-LC-KJ; first compound 0.08 µM) was 0.873. It also gave a relative viability (RERF-LC-KJ; first compound 0.253 µM) of 0.823, a relative viability (RERF-LC-KJ; first compound 0.8 µM) of 0.838 and a relative viability (RERF-LC-KJ; first compound 2.53 µM) of 0.659. The relative viability (RERF-LC-KJ; first compound 8 µM) was 0.648, the relative viability (EKVX; first compound 0.253 µM) was 0.783 and the relative viability (EKVX; first compound 0.8 µM) was 0.823. It also gave a relative viability (EKVX; first compound 2.53 µM) of 0.854, a relative viability (EKVX; first compound 8 µM) of 0.795 and a relative viability (NCI-H1734; first compound 0.08 µM) of 0.645. For the same compound, the relative viability (NCI-H1734; first compound 0.253 µM) was 0.563, the relative viability (NCI-H1734; first compound 0.8 µM) was 0.613 and the relative viability (NCI-H1734; first compound 2.53 µM) was 0.636. For the same compound, the relative viability (NCI-H1734; first compound 8 µM) was 0.637, the relative viability (HCC-15; first compound 0.08 µM) was 0.72 and the relative viability (HCC-15; first compound 0.253 µM) was 0.672. It also gave a relative viability (HCC-15; first compound 0.8 µM) of 0.717, a relative viability (HCC-15; first compound 2.53 µM) of 0.712 and a relative viability (HCC-15; first compound 8 µM) of 0.738. The relative viability (HARA; first compound 0.08 µM) was 0.785, the relative viability (HARA; first compound 0.253 µM) was 0.764 and the relative viability (HARA; first compound 0.8 µM) was 0.746. For the same compound, the relative viability (HARA; first compound 2.53 µM) was 0.74, the relative viability (HARA; first compound 8 µM) was 0.749 and the relative viability (SK-LU-1; first compound 0.08 µM) was 0.497. The relative viability (SK-LU-1; first compound 0.253 µM) was 0.485, the relative viability (SK-LU-1; first compound 0.8 µM) was 0.487 and the relative viability (SK-LU-1; first compound 2.53 µM) was 0.372. For the same compound, the relative viability (SK-LU-1; first compound 8 µM) was 0.383, the relative viability (201T; first compound 0.08 µM) was 0.876 and the relative viability (201T; first compound 0.253 µM) was 0.836. For the same compound, the relative viability (201T; first compound 0.8 µM) was 0.807, the relative viability (201T; first compound 2.53 µM) was 0.821 and the relative viability (201T; first compound 8 µM) was 0.719. For the same compound, the relative viability (NCI-H1944; first compound 0.08 µM) was 0.427, the relative viability (NCI-H1944; first compound 2.53 µM) was 0.35 and the relative viability (NCI-H1944; first compound 8 µM) was 0.413. The relative viability (BEN; first compound 0.08 µM) was 1.15, the relative viability (BEN; first compound 0.253 µM) was 1.15 and the relative viability (BEN; first compound 0.8 µM) was 1.1. For the same compound, the relative viability (BEN; first compound 2.53 µM) was 1.07, the relative viability (BEN; first compound 8 µM) was 1.29 and the relative viability (HCC-366; first compound 0.08 µM) was 0.355. It also gave a relative viability (HCC-366; first compound 0.253 µM) of 0.332, a relative viability (HCC-366; first compound 0.8 µM) of 0.373 and a relative viability (HCC-366; first compound 2.53 µM) of 0.323. It also gave a relative viability (HCC-366; first compound 8 µM) of 0.334, a relative viability (LC-2-ad; first compound 0.08 µM) of 0.68 and a relative viability (LC-2-ad; first compound 0.253 µM) of 0.731. For the same compound, the relative viability (LC-2-ad; first compound 0.8 µM) was 0.69, the relative viability (LC-2-ad; first compound 2.53 µM) was 0.668 and the relative viability (LC-2-ad; first compound 8 µM) was 0.673. For the same compound, the relative viability (HCC-827; first compound 0.253 µM) was 0.627, the relative viability (HCC-827; first compound 0.8 µM) was 0.7 and the relative viability (HCC-827; first compound 2.53 µM) was 0.747. For the same compound, the relative viability (HCC-827; first compound 8 µM) was 0.678, the relative viability (NCI-H1993; first compound 0.08 µM) was 0.95 and the relative viability (NCI-H1993; first compound 0.253 µM) was 1.12. The relative viability (NCI-H1993; first compound 0.8 µM) was 0.918, the relative viability (NCI-H1993; first compound 2.53 µM) was 1.05 and the relative viability (NCI-H1993; first compound 8 µM) was 1.13. For the same compound, the relative viability (NCI-H1975; first compound 0.08 µM) was 0.934, the relative viability (NCI-H1975; first compound 0.253 µM) was 0.782 and the relative viability (NCI-H1975; first compound 0.8 µM) was 0.858. The relative viability (NCI-H1975; first compound 2.53 µM) was 0.75, the relative viability (NCI-H1975; first compound 8 µM) was 0.625 and the relative viability (LU99A; first compound 0.08 µM) was 0.251. The relative viability (LU99A; first compound 0.8 µM) was 0.26, the relative viability (LU99A; first compound 2.53 µM) was 0.297 and the relative viability (LU99A; first compound 8 µM) was 0.254. It also gave a relative viability (NCI-H596; first compound 0.08 µM) of 0.768, a relative viability (NCI-H596; first compound 0.253 µM) of 0.755 and a relative viability (NCI-H596; first compound 0.8 µM) of 0.663. The relative viability (NCI-H596; first compound 2.53 µM) was 0.745, the relative viability (NCI-H596; first compound 8 µM) was 0.779 and the relative viability (COR-L23; first compound 0.08 µM) was 0.325. The relative viability (COR-L23; first compound 0.253 µM) was 0.308, the relative viability (COR-L23; first compound 0.8 µM) was 0.386 and the relative viability (COR-L23; first compound 2.53 µM) was 0.383. The relative viability (COR-L23; first compound 8 µM) was 0.336, the relative viability (NCI-H1755; first compound 0.08 µM) was 0.879 and the relative viability (NCI-H1755; first compound 0.253 µM) was 0.842. It also gave a relative viability (NCI-H1755; first compound 0.8 µM) of 0.845, a relative viability (NCI-H1755; first compound 2.53 µM) of 0.825 and a relative viability (NCI-H1755; first compound 8 µM) of 0.776. The relative viability (COR-L 105; first compound 0.08 µM) was 0.664, the relative viability (COR-L 105; first compound 0.253 µM) was 0.659 and the relative viability (COR-L 105; first compound 0.8 µM) was 0.83. For the same compound, the relative viability (COR-L 105; first compound 2.53 µM) was 0.696, the relative viability (COR-L 105; first compound 8 µM) was 0.664 and the relative viability (LXF-289; first compound 0.08 µM) was 1.09. The relative viability (LXF-289; first compound 0.253 µM) was 1.04, the relative viability (LXF-289; first compound 0.8 µM) was 1.01 and the relative viability (LXF-289; first compound 2.53 µM) was 0.937. It also gave a relative viability (LXF-289; first compound 8 µM) of 1.03.
